In brackets after ≈: the same amount, converted by molar mass.
Legend:
Format in all cases: functional
Escherichia coli [1] = test: Antibacterial activity against Escherichia coli assessed growth inhibition by micro broth dilution method
Staphylococcus aureus [2] = test: Antibacterial activity against Staphylococcus aureus ATCC 29213 assessed growth inhibition by micro broth dilution method
Klebsiella pneumoniae = test: Antibacterial activity against Klebsiella pneumonia assessed growth inhibition by micro broth dilution method
Staphylococcus aureus [3] = test: Antibacterial activity against Staphylococcus aureus ATCC 25923 assessed growth inhibition by micro broth dilution method
Staphylococcus aureus [4] = test: Antibacterial activity against methicillin-resistant Staphylococcus aureus assessed growth inhibition by micro broth dilution method
Enterococcus faecalis = test: Antibacterial activity against Enterococcus faecalis assessed growth inhibition by micro broth dilution method
Acinetobacter baumannii = test: Antibacterial activity against Acinetobacter baumannii assessed growth inhibition by micro broth dilution method
Pseudomonas aeruginosa [5] = test: Antibacterial activity against Pseudomonas aeruginosa ATCC 27853 assessed growth inhibition by micro broth dilution method
Escherichia coli [6] = test: Antibacterial activity against Escherichia coli ATCC 25922 assessed growth inhibition by micro broth dilution method
Staphylococcus aureus [7] = test: Antibacterial activity against Staphylococcus aureus assessed growth inhibition by micro broth dilution method
Pseudomonas aeruginosa [8] = test: Antibacterial activity against Pseudomonas aeruginosa assessed growth inhibition by micro broth dilution method

Compound | MIC (Escherichia coli [1]) [µg/mL] | MIC (Staphylococcus aureus [2]) [µg/mL] | MIC (Klebsiella pneumoniae) [µg/mL] | MIC (Staphylococcus aureus [3]) [µg/mL] | MIC (Staphylococcus aureus [4]) [µg/mL] | MIC (Enterococcus faecalis) [µg/mL] | MIC (Acinetobacter baumannii) [µg/mL] | MIC (Pseudomonas aeruginosa [5]) [µg/mL] | MIC (Escherichia coli [6]) [µg/mL] | MIC (Staphylococcus aureus [7]) [µg/mL] | MIC (Pseudomonas aeruginosa [8]) [µg/mL]
CCOC(=O)c1cn(C2CC2)c2cc(F)c(F)cc2c1=O | 16 (≈ 54.6 µM) | 128 (≈ 436 µM) | 64 (≈ 218 µM) | 16 (≈ 54.6 µM) | 256 (≈ 873 µM) | 128 (≈ 436 µM) | 256 (≈ 873 µM) | 256 (≈ 873 µM) | 64 (≈ 218 µM) | 64 (≈ 218 µM) | 32 (≈ 109 µM)
CCOC(=O)c1cn(CC2CCC2)c2cc([C-](C#N)C(=O)OCC)c(F)cc2c1=O.[Na+] (stereo not drawn) | 64 | 8 | 8 | 4 | 16 | 2 | 4 | 8 | 2 | 8 | 16
CCOC(=O)c1cn(CC(=O)N2CCCCC2)c2cc(F)c(F)cc2c1=O | 16 (≈ 42.3 µM) | 64 (≈ 169 µM) | 256 (≈ 677 µM) | 128 (≈ 338 µM) | 256 (≈ 677 µM) | 64 (≈ 169 µM) | 64 (≈ 169 µM) | 64 (≈ 169 µM) | 64 (≈ 169 µM) | 256 (≈ 677 µM) | 32 (≈ 84.6 µM)
CCOC(=O)c1cn(Cc2ccc([N+](=O)[O-])cc2)c2cc(C(C#N)C(=O)OCC)c(F)cc2c1=O.[Na+] (stereo not drawn) | 0.5 | 64 | 128 | 1 | 256 | 32 | 128 | 64 | 128 | 128 | 128
CCOC(=O)c1cn(Cc2ccc([N+](=O)[O-])cc2)c2cc(F)c(F)cc2c1=O | 2 (≈ 5.15 µM) | 256 (≈ 659 µM) | 256 (≈ 659 µM) | 256 (≈ 659 µM) | 256 (≈ 659 µM) | 256 (≈ 659 µM) | 16 (≈ 41.2 µM) | 256 (≈ 659 µM) | 128 (≈ 330 µM) | 128 (≈ 330 µM) | 256 (≈ 659 µM)
NC1CCN(c2c(F)cc3c(=O)c(C(=O)O)cn(C4CC4)c3c2Cl)C1 (stereo not drawn) [CLINAFLOXACIN] | 0.25 (≈ 0.683 µM) | 0.5 (≈ 1.37 µM) | 0.5 (≈ 1.37 µM) | 0.5 (≈ 1.37 µM) | 1 (≈ 2.73 µM) | 4 (≈ 10.9 µM) | 0.5 (≈ 1.37 µM) | 0.5 (≈ 1.37 µM) | 0.25 (≈ 0.683 µM) | 0.5 (≈ 1.37 µM) | 0.5 (≈ 1.37 µM)
C=CCn1cc(C(=O)OCC)c(=O)c2cc(F)c([C-](C#N)C(=O)OCC)cc21.[Na+] (stereo not drawn) | 32 | 32 | 32 | 2 | 128 | 64 | 16 | 16 | 16 | 128 | 16
CCOC(=O)c1cn(CC2CCCC2)c2cc([C-](C#N)C(=O)OCC)c(F)cc2c1=O.[Na+] (stereo not drawn) | 128 | 4 | 8 | 8 | 16 | 2 | 4 | 8 | 2 | 16 | 8
CCOC(=O)c1cn(Cc2cnc(Cl)s2)c2cc([C-](C#N)C(=O)OCC)c(F)cc2c1=O.[Na+] (stereo not drawn) | 4 | 8 | 32 | 4 | 4 | 4 | 16 | 2 | 8 | 32 | 64
CCCn1cc(C(=O)OCC)c(=O)c2cc(F)c(F)cc21 | 32 (≈ 108 µM) | 128 (≈ 433 µM) | 64 (≈ 217 µM) | 256 (≈ 867 µM) | 256 (≈ 867 µM) | 256 (≈ 867 µM) | 256 (≈ 867 µM) | 256 (≈ 867 µM) | 128 (≈ 433 µM) | 64 (≈ 217 µM) | 128 (≈ 433 µM)
CCOC(=O)c1cn(CC2CCC2)c2cc(F)c(F)cc2c1=O | 16 (≈ 49.8 µM) | 256 (≈ 797 µM) | 32 (≈ 99.6 µM) | 16 (≈ 49.8 µM) | 256 (≈ 797 µM) | 128 (≈ 398 µM) | 128 (≈ 398 µM) | 256 (≈ 797 µM) | 128 (≈ 398 µM) | 64 (≈ 199 µM) | 32 (≈ 99.6 µM)
CCOC(=O)C(C#N)c1cc2c(cc1F)c(=O)c(C(=O)O)cn2CC=C(C)C (stereo not drawn) | 32 (≈ 82.8 µM) | 4 (≈ 10.4 µM) | 0.25 (≈ 0.647 µM) | 4 (≈ 10.4 µM) | 8 (≈ 20.7 µM) | 64 (≈ 166 µM) | 1 (≈ 2.59 µM) | 1 (≈ 2.59 µM) | 1 (≈ 2.59 µM) | 4 (≈ 10.4 µM) | 8 (≈ 20.7 µM)
CCOC(=O)c1cn(CCN2CCOCC2)c2cc([C-](C#N)C(=O)OCC)c(F)cc2c1=O.[Na+] (stereo not drawn) | 256 | 256 | 256 | 256 | 256 | 256 | 256 | 256 | 256 | 256 | 256
CCOC(=O)c1cn(Cc2ccccn2)c2cc(F)c(F)cc2c1=O | 2 (≈ 5.81 µM) | 128 (≈ 372 µM) | 128 (≈ 372 µM) | 64 (≈ 186 µM) | 256 (≈ 744 µM) | 128 (≈ 372 µM) | 16 (≈ 46.5 µM) | 64 (≈ 186 µM) | 64 (≈ 186 µM) | 64 (≈ 186 µM) | 128 (≈ 372 µM)
CCOC(=O)c1cn(CC2CC2)c2cc(F)c(F)cc2c1=O | 16 (≈ 52.1 µM) | 128 (≈ 417 µM) | 128 (≈ 417 µM) | 128 (≈ 417 µM) | 256 (≈ 833 µM) | 128 (≈ 417 µM) | 256 (≈ 833 µM) | 256 (≈ 833 µM) | 64 (≈ 208 µM) | 128 (≈ 417 µM) | 32 (≈ 104 µM)
CCOC(=O)c1cn(CC2CCCCC2)c2cc(C(C#N)C(=O)OCC)c(F)cc2c1=O (stereo not drawn) | 4 (≈ 9.04 µM) | 4 (≈ 9.04 µM) | 4 (≈ 9.04 µM) | 1 (≈ 2.26 µM) | 64 (≈ 145 µM) | 16 (≈ 36.2 µM) | 4 (≈ 9.04 µM) | 1 (≈ 2.26 µM) | 0.5 (≈ 1.13 µM) | 64 (≈ 145 µM) | 1 (≈ 2.26 µM)
CCOC(=O)c1cn(CC(=O)N2CCN(C(=O)OC(C)(C)C)CC2)c2cc([C-](C#N)C(=O)OCC)c(F)cc2c1=O.[Na+] (stereo not drawn) | 16 | 32 | 128 | 16 | 32 | 64 | 32 | 4 | 16 | 256 | 64
CCCCCn1cc(C(=O)OCC)c(=O)c2cc(F)c(F)cc21 | 16 (≈ 49.5 µM) | 64 (≈ 198 µM) | 64 (≈ 198 µM) | 256 (≈ 792 µM) | 256 (≈ 792 µM) | 64 (≈ 198 µM) | 64 (≈ 198 µM) | 256 (≈ 792 µM) | 64 (≈ 198 µM) | 32 (≈ 99 µM) | 64 (≈ 198 µM)
CCOC(=O)c1cn(Cc2ccccc2)c2cc(C(C#N)C(=O)OCC)c(F)cc2c1=O (stereo not drawn) | 32 (≈ 73.3 µM) | 2 (≈ 4.58 µM) | 2 (≈ 4.58 µM) | 2 (≈ 4.58 µM) | 32 (≈ 73.3 µM) | 16 (≈ 36.7 µM) | 8 (≈ 18.3 µM) | 2 (≈ 4.58 µM) | 16 (≈ 36.7 µM) | 8 (≈ 18.3 µM) | 0.5 (≈ 1.15 µM)
CCOC(=O)c1cn(CC)c2cc([C-](C#N)C(=O)OCC)c(F)cc2c1=O.[Na+] (stereo not drawn) | 64 | 64 | 32 | 2 | 64 | 64 | 32 | 32 | 32 | 256 | 32
CCCCCn1cc(C(=O)OCC)c(=O)c2cc(F)c([C-](C#N)C(=O)OCC)cc21.[Na+] (stereo not drawn) | 4 | 4 | 4 | 1 | 32 | 4 | 4 | 4 | 1 | 32 | 4
CCOC(=O)c1cn2c3c(c([C-](C#N)C(=O)OCC)c(F)cc3c1=O)OC[C@@H]2C.[Na+] (stereo partly drawn) | 64 | 256 | 256 | 4 | 128 | 128 | 128 | 64 | 64 | 256 | 256
CCCCCCCCCCCCn1cc(C(=O)OCC)c(=O)c2cc(F)c(F)cc21 | 16 (≈ 38 µM) | 32 (≈ 75.9 µM) | 16 (≈ 38 µM) | 128 (≈ 304 µM) | 256 (≈ 607 µM) | 64 (≈ 152 µM) | 64 (≈ 152 µM) | 256 (≈ 607 µM) | 64 (≈ 152 µM) | 32 (≈ 75.9 µM) | 64 (≈ 152 µM)
C=CCn1cc(C(=O)OCC)c(=O)c2cc(F)c(F)cc21 | 8 (≈ 27.3 µM) | 128 (≈ 436 µM) | 32 (≈ 109 µM) | 64 (≈ 218 µM) | 256 (≈ 873 µM) | 128 (≈ 436 µM) | 256 (≈ 873 µM) | 256 (≈ 873 µM) | 64 (≈ 218 µM) | 128 (≈ 436 µM) | 64 (≈ 218 µM)
CCOC(=O)C(C#N)c1cc2c(cc1F)c(=O)c(C(=O)O)cn2CC (stereo not drawn) | 32 (≈ 92.4 µM) | 16 (≈ 46.2 µM) | 1 (≈ 2.89 µM) | 4 (≈ 11.6 µM) | 4 (≈ 11.6 µM) | 64 (≈ 185 µM) | 8 (≈ 23.1 µM) | 4 (≈ 11.6 µM) | 0.5 (≈ 1.44 µM) | 4 (≈ 11.6 µM) | 8 (≈ 23.1 µM)
CCCCn1cc(C(=O)OCC)c(=O)c2cc(F)c([C-](C#N)C(=O)OCC)cc21.[Na+] (stereo not drawn) | 8 | 8 | 16 | 2 | 32 | 16 | 16 | 8 | 16 | 64 | 8
CCOC(=O)c1cn(CC=C(C)C)c2cc(F)c(F)cc2c1=O | 8 (≈ 24.9 µM) | 128 (≈ 398 µM) | 32 (≈ 99.6 µM) | 64 (≈ 199 µM) | 256 (≈ 797 µM) | 128 (≈ 398 µM) | 256 (≈ 797 µM) | 256 (≈ 797 µM) | 64 (≈ 199 µM) | 128 (≈ 398 µM) | 64 (≈ 199 µM)
CCOC(=O)c1cn2c3c(c(F)c(F)cc3c1=O)OC[C@@H]2C | 16 (≈ 51.7 µM) | 64 (≈ 207 µM) | 32 (≈ 103 µM) | 32 (≈ 103 µM) | 64 (≈ 207 µM) | 128 (≈ 414 µM) | 32 (≈ 103 µM) | 256 (≈ 828 µM) | 128 (≈ 414 µM) | 128 (≈ 414 µM) | 128 (≈ 414 µM)

From ChEMBL document CHEMBL5528028, “Discovery of benzopyridone cyanoacetates as new type of potential broad-spectrum antibacterial candidates” (Eur J Med Chem, 2024)
